Experimental data reported in the OligoGym collection.
HELM strings list units from the 5' end as sugar, base in round brackets, then linkage (d deoxyribose, r ribose, m 2'-O-methyl, p phosphodiester). Strings are as the collection lists them, not checked against the first reports. ss, as = sense and antisense strand; [lna] = locked nucleic acid (LNA); [una] = unlocked nucleic acid; [hna] = hexitol nucleic acid; [s4r] = 4'-thioribose; [fl2r] = 2'-fluoro

Conditions: siRNA
Note: test system not given here.

Substance	target mRNA knockdown [%]
RNA1{r(A)p.r(A)p.m(C)p.m(C)p.m(C)p.r(A)p.r(A)p.r(A)p.r(G)p.r(G)p.r(G)p.r(G)p.r(A)p.r(G)p.r(U)p.r(U)p.r(G)p.m(C)p.r(U)p.r(T)p.r(T)}|RNA2{m(A)p.r(G)p.m(C)p.r(A)p.m(A)p.r(C)p.m(U)p.r(C)p.m(C)p.r(C)p.m(C)p.r(U)p.m(U)p.r(U)p.m(G)p.r(G)p.m(G)p.r(U)p.m(U)p.r(T)p.r(T)}$$$RNA1{StrandType:ss}|RNA2{StrandType:as}$	37
RNA1{[s4r](C)p.[s4r](G)p.[s4r](U)p.[s4r](A)p.r(C)p.r(G)p.r(C)p.r(G)p.r(G)p.r(A)p.r(A)p.r(U)p.r(A)p.r(C)p.r(U)p.[s4r](U)p.[s4r](C)p.[s4r](G)p.[s4r](A)p.r(T)p.r(T)}|RNA2{[s4r](U)p.[s4r](C)p.[s4r](G)p.[s4r](A)p.r(A)p.r(G)p.r(U)p.r(A)p.r(U)p.r(U)p.r(C)p.r(C)p.r(G)p.r(C)p.r(G)p.[s4r](U)p.[s4r](A)p.[s4r](C)p.[s4r](G)p.r(T)p.r(T)}$$$RNA1{StrandType:ss}|RNA2{StrandType:as}$	0
RNA1{r(A)p.r(G)p.r(U)p.r(C)p.r(C)p.r(C)p.m(U)p.r(G)p.r(G)p.r(A)p.r(G)p.r(C)p.r(C)p.r(U)p.m(U)p.r(A)p.r(A)p.r(A)p.r(C)p.r(T)p.r(T)}|RNA2{r(G)p.r(U)p.r(U)p.m(U)p.r(A)p.r(A)p.r(G)p.r(G)p.r(C)p.r(U)p.r(C)p.m(C)p.r(A)p.r(G)p.r(G)p.r(G)p.r(A)p.r(C)p.r(U)p.r(T)p.r(T)}$$$RNA1{StrandType:ss}|RNA2{StrandType:as}$	65
RNA1{r(A)p.r(A)p.r(A)p.r(C)p.r(C)p.r(C)p.r(C)p.r(U)p.r(A)p.r(G)p.r(A)p.r(G)p.r(G)p.r(G)p.r(C)p.r(A)p.r(A)p.r(G)p.r(U)p.r(T)p.r(T)}|RNA2{[fl2r](A)p.r(C)p.[fl2r](U)p.r(U)p.[fl2r](G)p.r(C)p.[fl2r](C)p.r(C)p.[fl2r](U)p.r(C)p.[fl2r](U)p.r(A)p.[fl2r](G)p.r(G)p.[fl2r](G)p.r(G)p.[fl2r](U)p.r(U)p.[fl2r](U)p.r(T)p.r(T)}$$$RNA1{StrandType:ss}|RNA2{StrandType:as}$	37
RNA1{r(A)p.r(A)p.m(U)p.r(A)p.r(A)p.r(G)p.m(C)p.r(A)p.r(G)p.r(C)p.r(U)p.r(C)p.r(G)p.m(C)p.r(G)p.r(C)p.r(U)p.r(C)p.r(C)p.r(T)p.r(T)}|RNA2{r(G)p.r(G)p.r(A)p.r(G)p.r(C)p.r(G)p.r(C)p.r(G)p.r(A)p.r(G)p.r(C)p.m(U)p.r(G)p.r(C)p.r(U)p.m(U)p.r(A)p.r(U)p.r(U)p.r(T)p.r(T)}$$$RNA1{StrandType:ss}|RNA2{StrandType:as}$	51
RNA1{r(G)p.[hna](A)p.r(C)p.r(G)p.r(U)p.r(A)p.r(A)p.[hna](A)p.r(C)p.r(G)p.r(G)p.r(C)p.r(C)p.[hna](A)p.r(C)p.r(A)p.[hna](A)p.r(G)p.r(U)p.r(U)p.r(C)}|RNA2{r(A)p.r(C)p.r(U)p.r(U)p.r(G)p.r(U)p.r(G)p.r(G)p.r(C)p.r(C)p.r(G)p.r(U)p.r(U)p.r(U)p.r(A)p.r(C)p.r(G)p.r(U)p.[lna](C)p.[lna](G)p.r(C)}$$$RNA1{StrandType:ss}|RNA2{StrandType:as}$	79.1
RNA1{r(C)p.[fl2r](C)p.r(A)p.r(G)p.r(C)p.r(G)p.r(A)p.r(G)p.r(C)p.r(C)p.[fl2r](C)p.r(A)p.r(A)p.r(A)p.r(A)p.r(G)p.r(A)p.r(A)p.r(A)p.r(T)p.r(T)}|RNA2{r(U)p.r(U)p.r(U)p.r(C)p.r(U)p.r(U)p.r(U)p.r(U)p.r(G)p.r(G)p.r(G)p.r(C)p.r(U)p.r(C)p.r(G)p.r(C)p.r(U)p.r(G)p.r(G)p.r(T)p.r(T)}$$$RNA1{StrandType:ss}|RNA2{StrandType:as}$	85
RNA1{r(A)p.r(U)p.r(G)p.r(G)p.r(G)p.r(A)p.r(G)p.r(A)p.r(A)p.r(G)p.m(U)p.r(A)p.r(G)p.r(U)p.r(C)p.r(C)p.r(C)p.r(C)p.r(C)p.r(T)p.r(T)}|RNA2{r(G)p.r(G)p.r(G)p.r(G)p.r(G)p.r(A)p.r(C)p.m(U)p.r(A)p.r(C)p.r(U)p.r(U)p.r(C)p.r(U)p.r(C)p.r(C)p.r(C)p.r(A)p.r(U)p.r(T)p.r(T)}$$$RNA1{StrandType:ss}|RNA2{StrandType:as}$	84
RNA1{r(A)p.r(A)p.r(A)p.r(C)p.r(C)p.r(C)p.r(C)p.m(U)p.r(A)p.r(G)p.r(A)p.r(G)p.r(G)p.r(G)p.m(C)p.r(A)p.r(A)p.r(G)p.r(U)p.r(T)p.r(T)}|RNA2{r(A)p.r(C)p.r(U)p.m(U)p.r(G)p.r(C)p.r(C)p.r(C)p.r(U)p.r(C)p.m(U)p.r(A)p.r(G)p.r(G)p.r(G)p.r(G)p.r(U)p.r(U)p.r(U)p.r(T)p.r(T)}$$$RNA1{StrandType:ss}|RNA2{StrandType:as}$	78
RNA1{m(G)p.r(A)p.m(G)p.r(G)p.m(A)p.r(U)p.m(G)p.r(G)p.m(A)p.r(U)p.m(U)p.r(C)p.m(G)p.r(A)p.m(C)p.r(U)p.m(U)p.r(A)p.r(G)p.r(T)p.r(T)}|RNA2{r(C)p.m(U)p.r(A)p.r(A)p.r(G)p.m(U)p.r(C)p.r(G)p.r(A)p.r(A)p.m(U)p.r(C)p.r(C)p.r(A)p.r(U)p.r(C)p.r(C)p.r(U)p.r(C)p.r(T)p.r(T)}$$$RNA1{StrandType:ss}|RNA2{StrandType:as}$	23
RNA1{m(G)p.m(C)p.m(A)p.m(G)p.m(C)p.m(A)p.m(C)p.m(G)p.m(A)p.m(C)p.m(U)p.m(U)p.m(C)p.m(U)p.m(U)p.m(C)p.m(A)p.m(A)p.m(G)p.r(T)p.r(T)}|RNA2{m(C)p.m(U)p.m(U)p.m(G)p.m(A)p.m(A)p.m(G)p.m(A)p.m(A)p.m(G)p.m(U)p.m(C)p.m(G)p.m(U)p.m(G)p.m(C)p.m(U)p.m(G)p.m(C)p.r(T)p.r(T)}$$$RNA1{StrandType:ss}|RNA2{StrandType:as}$	0
RNA1{r(G)p.r(G)p.r(C)p.r(C)p.r(U)p.r(U)p.r(U)p.r(C)p.r(U)p.r(C)p.r(U)p.r(C)p.m(U)p.r(A)p.r(G)p.r(A)p.m(U)p.r(A)p.r(U)p.r(T)p.r(T)}|RNA2{r(A)p.m(U)p.r(A)p.r(U)p.r(C)p.m(U)p.r(A)p.r(G)p.r(A)p.r(G)p.r(A)p.r(G)p.r(A)p.r(A)p.r(A)p.r(G)p.r(G)p.r(C)p.r(C)p.r(T)p.r(T)}$$$RNA1{StrandType:ss}|RNA2{StrandType:as}$	89
RNA1{r(C)p.r(U)p.r(U)p.r(A)p.r(C)p.r(G)p.r(C)p.r(U)p.r(G)p.r(A)p.r(G)p.r(U)p.r(A)p.r(C)p.r(U)p.r(U)p.r(C)p.r(G)p.r(A)p.r(T)p.r(T)}|RNA2{r(U)p.r(C)p.r(G)p.r(A)p.r(A)p.r(G)p.r(U)p.r(A)p.[lna](C)p.r(U)p.r(C)p.r(A)p.r(G)p.r(C)p.r(G)p.r(U)p.r(A)p.r(A)p.r(G)p.r(T)p.r(T)}$$$RNA1{StrandType:ss}|RNA2{StrandType:as}$	85
RNA1{r(G)p.r(A)p.m(U)p.r(A)p.r(C)p.r(U)p.r(U)p.r(C)p.r(U)p.r(G)p.r(G)p.r(U)p.r(U)p.r(C)p.r(C)p.r(C)p.r(U)p.r(C)p.r(C)p.r(T)p.r(T)}|RNA2{r(G)p.r(G)p.r(A)p.r(G)p.r(G)p.r(G)p.r(A)p.r(A)p.r(C)p.r(C)p.r(A)p.r(G)p.r(A)p.r(A)p.r(G)p.m(U)p.r(A)p.r(U)p.r(C)p.r(T)p.r(T)}$$$RNA1{StrandType:ss}|RNA2{StrandType:as}$	46
RNA1{r(U)p.r(C)p.r(C)p.r(C)p.r(U)p.r(U)p.r(C)p.r(C)p.r(A)p.r(C)p.r(C)p.r(G)p.r(C)p.r(C)p.r(A)p.m(U)p.r(A)p.r(U)p.r(U)p.r(T)p.r(T)}|RNA2{r(A)p.r(A)p.m(U)p.r(A)p.r(U)p.r(G)p.r(G)p.r(C)p.r(G)p.r(G)p.r(U)p.r(G)p.r(G)p.r(A)p.r(A)p.r(G)p.r(G)p.r(G)p.r(A)p.r(T)p.r(T)}$$$RNA1{StrandType:ss}|RNA2{StrandType:as}$	49
RNA1{[una](U)p.r(G)p.r(A)p.r(A)p.r(U)p.r(C)p.r(A)p.r(G)p.r(A)p.r(A)p.r(G)p.r(A)p.r(U)p.r(G)p.r(A)p.r(A)p.r(G)p.r(U)p.r(C)p.r(A)p.r(A)}|RNA2{[una](G)p.r(A)p.r(C)p.r(U)p.r(U)p.r(C)p.r(A)p.r(U)p.r(C)p.r(U)p.r(U)p.r(C)p.r(U)p.r(G)p.r(A)p.r(U)p.r(U)p.r(C)p.r(A)p.r(A)p.r(G)}$$$RNA1{StrandType:ss}|RNA2{StrandType:as}$	0
RNA1{r(C)p.r(U)p.r(U)p.r(A)p.r(C)p.r(G)p.r(C)p.r(U)p.r(G)p.r(A)p.r(G)p.r(U)p.r(A)p.r(C)p.r(U)p.r(U)p.r(C)p.r(G)p.r(A)p.r(T)p.r(T)}|RNA2{r(U)p.r(C)p.r(G)p.r(A)p.r(A)p.r(G)p.r(U)p.r(A)p.r(C)p.r(U)p.r(C)p.r(A)p.r(G)p.r(C)p.[lna](G)p.r(U)p.r(A)p.r(A)p.r(G)p.r(T)p.r(T)}$$$RNA1{StrandType:ss}|RNA2{StrandType:as}$	85
RNA1{r(C)p.r(U)p.r(C)p.r(C)p.r(C)p.r(C)p.r(A)p.r(G)p.r(U)p.r(C)p.r(U)p.r(C)p.r(U)p.r(C)p.r(U)p.r(U)p.m(A)p.r(A)p.r(A)p.r(T)p.r(T)}|RNA2{r(U)p.r(U)p.r(U)p.m(A)p.r(A)p.r(G)p.r(A)p.r(G)p.r(A)p.r(G)p.r(A)p.r(C)p.r(U)p.r(G)p.r(G)p.r(G)p.r(G)p.r(A)p.r(G)p.r(T)p.r(T)}$$$RNA1{StrandType:ss}|RNA2{StrandType:as}$	69
RNA1{r(G)p.r(C)p.r(U)p.r(U)p.r(U)p.m(A)p.r(A)p.r(G)p.r(G)p.r(A)p.r(A)p.r(C)p.m(U)p.r(G)p.r(G)p.r(A)p.r(A)p.r(G)p.r(G)p.r(T)p.r(T)}|RNA2{r(C)p.r(C)p.r(U)p.r(U)p.r(C)p.m(C)p.r(A)p.r(G)p.r(U)p.r(U)p.r(C)p.r(C)p.r(U)p.r(U)p.r(A)p.r(A)p.r(A)p.r(G)p.r(C)p.r(T)p.r(T)}$$$RNA1{StrandType:ss}|RNA2{StrandType:as}$	74
RNA1{r(U)p.r(U)p.r(U)p.r(C)p.r(C)p.r(C)p.r(C)p.r(C)p.r(A)p.r(G)p.r(G)p.[fl2r](U)p.r(A)p.r(A)p.r(C)p.r(G)p.r(A)p.r(U)p.r(U)p.r(T)p.r(T)}|RNA2{r(A)p.r(A)p.r(U)p.r(C)p.r(G)p.r(U)p.[fl2r](U)p.r(A)p.r(C)p.r(C)p.r(U)p.r(G)p.r(G)p.r(G)p.r(G)p.r(G)p.r(A)p.r(A)p.r(A)p.r(T)p.r(T)}$$$RNA1{StrandType:ss}|RNA2{StrandType:as}$	75
